Reference: patent US9931313B2, “Methods of treating proliferative disorders with malate or derivatives thereof” (Beth Israel Deaconess Medical Center, Inc., priority 2012, dated 2018)

Key:
[1] = test system: A549 cells; assay: Cisplatin treatment of A549 cells with or without ME2 knockdown, trypan blue count; assay type: cell-based, human; conditions: 20 μM cisplatin, 72 h
Protocol: ME2 knockdown and control cells were plated in 6-well plates, and 24 h later, the cell were treated with 20 μM cisplatin. After 72 h, cells were stained with trypan blue and live cells were counted. […] Approximately 5×10^6 ME2 deficient cells from ME2 specific shRNA or control pLKO cells were subcutaneously implanted into female athymic nude mice as described in Materials and Methods. Tumor size was measured and calculated. C: Depletion of ME2 inhibits mucin-1 and vimentin expression and increase differentiation marker E-cadherin and ZO-1 expression in vivo.

[2] = test system: A549 xenograft tumors; assay: Cisplatin treatment of xenograft tumors from wild type and ME2 knockdown A549 cells; assay type: in vivo, athymic nude mice
Protocol: ME2 knockdown and control cells were plated in 6-well plates, and 24 h later, the cell were treated with 20 μM cisplatin. After 72 h, cells were stained with trypan blue and live cells were counted. […] Approximately 5×10^6 ME2 deficient cells from ME2 specific shRNA or control pLKO cells were subcutaneously implanted into female athymic nude mice as described in Materials and Methods. Tumor size was measured and calculated. C: Depletion of ME2 inhibits mucin-1 and vimentin expression and increase differentiation marker E-cadherin and ZO-1 expression in vivo. Animal experiments were performed under federal guidelines and approved by the Institutional Animal Care and Use Committee (IACUC) of the Beth Israel Deaconess Medical Center (Approval number 0342007). A549 xenografts in nude mice were generated by following the description of […] et al., in Biochem. Pharmacol. 72: 671-680 (2006). Briefly, approximately 10^7 ME2 deficient or control A549 cells resuspended in 200 μl of a serum-free culture medium/Matrigel mixture (1:1) were subcutaneously injected into the right and left flanks of male nude/nu/nu athymic mice, respectively. Tumor-bearing mice were sacrificed after 6-8 weeks and tumor masses were measured or imaged before excision. […]

[3] = test system: K562 cell; conditions: supplementation; Ren et al., PLoS One 5 (2010); cited from earlier work

Question: With `N.N.[Cl][Pt][Cl]` [cisplatin] as the molecule, how does the “sensitivity of A549 cells to cisplatin treatment with ME2 deficiency” value [1] read?
Answer: increased the sensitivity

Question: And the “later growth of ME2 knockdown tumors (resumed at about 350 mm^3)” value ([2]; ME2 knockdown A549 xenografts)?
Answer: prevent this later tumor growth

Question: And the “E-cadherin and mucin-1 expression in vivo” value ([2]; combination of ME2 depletion and cisplatin)?
Answer: affected

Question: For `O=C([O-])CC(O)C(=O)[O-].[Na+].[Na+]` (stereo not shown) [sodium malate], which K562 cell differentiation [3] is on record?
Answer: failed to induce
